Test results taken from patent publication US20200108089A1, “Gemcitabine Derivatives for Cancer Therapy” (Suzhou Sirnaomics Biopharmaceuticals Co., Ltd., priority 2017, published 2020).
Read-outs that look alike come from different tables or passages of the source. Bridge positions count the residues as written; N and C are the ends. Ends that are not written are not given here. I, II: the chains in the order shown.

How the values were obtained:
[1] = test system: Panc-1 cells; test: Dosage-dependent cytotoxicities of Gemcitabine and GEM-HKP conjugate, Cell Titer-Glo; type: cell-based, human; conditions: Panc-1, 72 hrs post treatment
Procedure: FIG. 21. Dosage-Dependent Cytotoxicities of Gemcitabine and GEM-HKP conjugate in the Panc-1 cell culture, at 72 hrs post treatments After exposures of the Panc-1 cells to Gemcitabine only, GEM-HKP conjugate, the cytotoxicities of each treatment was assessed with a “Cell Titer-Glo Luminescent cell viability assay” (Promega). Values derived from untreated cells (Blank) were set as 100%. All values represent the mean of ±S.D. of four replicates for each dilution. In this study, the HKP concentration at each point equals to its concentration in the Gem/HKP.

[2] = test system: Panc-1 cells; test: Effect of TGF-β1siRNA and mTORsiRNA on chemosensitivity of Panc-1 cells to low dose GEM-TCA; type: cell-based, human; conditions: 48 h; for maximum cell killing: siRNA 30 nM plus GEM-TCA up to 1 μM; for sensitization of Panc-1 cells to GEM-TCA: siRNA 30 nM
Procedure: FIG. 10. Effect of forward transfection with TGF-β1siRNA and mTORsiRNA chemosensitivity of Panc-1 cells to […] The next day, the medium was supplemented with 3.9 nM-1000 nM […] diluted in the same medium. At 48 h post chemical exposure cytotoxicity was assessed with Cell Titer-Glo Luminescent cell viability assay (Promega). Values derived from untreated cells (Blank) were set as 100%. All values represent the mean of ±S.D. of four replicates for each dilution. Paired sample two-tailed Student's t-test was used to determine significance.
. At 48 h post chemical exposure cytotoxicity was assessed with Cell Titer-Glo Luminescent cell viability assay (Promega). Values derived from untreated cells (Blank) were set as 100%. All values represent the mean of ±S.D. of four replicates for each dilution. Paired sample two-tailed Student's t-test was used to determine significance. The TGF-β1siRNA was previously identified and validated with multiple in vitro and in vivo assays: […]

[3] = test system: miR-132; test: Knockdown of miR-132 by antagomir-132 nanoparticles in mouse eyes; type: in vivo; conditions: QPCR
Procedure: FIG. 4. Knockdown of miR-132 by antagomir-132 nanoparticles in mouse eyes. […] One way ANOVA with Bonferroni's post hoc test was used to calculate the level of significance. P≤0.05 (*). Six corneas were collected and pooled for analysis by QPCR or WB. (B) Antagomir-132 and scrambled sequences were injected in HSV infected mice subconjunctively and the quantification of RasGAP mRNA from corneas isolated from different groups was carried out (n=6 mice/group). The level of significance was determined by student's t test (unpaired). ***P≤0.001.
One way ANOVA with Bonferroni's post hoc test was used to calculate the level of significance. P≤0.05 (*). Six corneas were collected and pooled for analysis by QPCR or WB. (B) Antagomir-132 and scrambled sequences were injected in HSV infected mice subconjunctively and the quantification of RasGAP mRNA from corneas isolated from different groups was carried out (n=6 mice/group). The level of significance was determined by student's t test (unpaired). ***P≤0.001 (FIG. 4).

[4] = test system: Panc-1 cells; test: Effect of forward transfection with mTOR siRNA on chemosensitivity of Panc-1 cells to GEM-TCA; type: cell-based, human; conditions: mTOR-siRNA 10 nM and 20 nM; GEM-TCA 12.3 nM to 1 μM; 72 h; vs non-targeting siRNA
Procedure: FIG. 9. Effect of forward transfection with mTORsiRNA on chemosensitivity of Panc-1 cells to […] 5×10^3 Panc-1 cells were seeded on the wells of 96-well plate in 100 ul of DMEM/10% FBS. The next day cells were transfected with siRNA/Lipofectamine 2000 complexes accordingly to the manufactures' recommendations. In 5-6 h. medium was changed. The next day various concentrations of […] were applied to the transfected cells. At 72 h post chemical exposure cytotoxicity was assessed with Cell Titer-Glo Luminescent cell viability assay (Promega). Values derived from untreated cells (Blank) were set as 100%. All values represent the mean of ±S.D. of four replicates for each dilution. * different from cells transfected with control, not-targeting siRNA (p<0.05, Student's t test)
To realize the original hypothesis that the oncogenic gene target knockdown may induce a chemosensitivity of Panc-1 cell toward to […], the experiment was conducted with following procedures. 5×10^3 Panc-1 cells were seeded on the wells of 96-well plate in 100 ul of DMEM/10% FBS. The next day cells were transfected with siRNA/Lipofectamine 2000 complexes accordingly to the manufactures' recommendations. In 5-6 h. medium was changed. […] At 72 h post chemical exposure cytotoxicity was assessed with Cell Titer-Glo Luminescent cell viability assay (Promega). […]

[5] = test system: mTOR; test: Selection of potent siRNA targeting mTOR, transfection and qRT-PCR, CT26; type: cell-based; conditions: mouse CT26 cells, qRT-PCR
Excerpt: (§1) FIG. 3. Selection of potent siRNA targeting mTOR. (A) The lower panel illustrates selection of eight 25 mer siRNA duplexes with control siRNA were transfected into human MDA-MB-231 cells and mouse CT26 cells. 24 hr later, mRNA was collected and subject to Q-RT-PCR with the standard control gene target Rigs15.
(§2) For mTOR siRNA selection, we first use in silico screening selected 8 siRNA sequences for siRNA oligo synthesis. And then we transfected these siRNAs into human MDA-MB-231 cells and mouse CT26 cells. Twenty-four hours later, the total mRNA collected and subjected to qRT-PCR analysis with the standard control gene target Rigs15. From FIG. 3 we can see that the potent siRNA duplexes targeting mTOR (both human and mouse mRNAs) was selected.
(§3) We have identified potent mTOR specific siRNA through cell culture studies with human breast cancer cell line MDA-MB-231 and mouse CT26 cells, followed by qRT-PCR analyses: mTOR-siRNA: […]

[6] = test system: mTOR; test: Selection of potent siRNA targeting mTOR, transfection and qRT-PCR, MDA-MB-231; type: cell-based; conditions: human MDA-MB-231 cells, qRT-PCR
Excerpt: as §1, §2, §3

[7] = -NH2 of Gemcitabine; cited from earlier work
[8] = test system: LX-1, CALU-6, NCI-H460, NCI-H520 human lung xenografts; conditions: cited from earlier work
[9] = cited from earlier work
[10] = test system: Lewis lung murine xenograft; conditions: cited from earlier work

I: KHHHKHHHKHHHKHHHKKKK-NH2 / II: KHHHKHHHKHHHKHHHK / III: KHHHKHHHKHHHKHHHK / IV: KHHHKHHHKHHHKHHHK (amide I:18-IV:C, I:19-III:C, I:20-II:C) [HKP]
cytotoxicity [1]: no cytotoxicity

TGF-β1siRNA: siRNA duplex to TGF-β1; sense 5′-r(CCUCAAUUCAGUCUCUCAUCUGCAA)-3′ in b118 (sense CCCAAGGGCUACCAUGCCAACUUCU; antisense AGAAGUUGGCAUGGUAGCCCUUGGG; chemistry not given here)
maximum cell killing [2]: 60%
sensitization of Panc-1 cells to GEM-TCA ([2]; GEM-TCA 3.9 nM): significantly sensitize
sensitization of Panc-1 cells to GEM-TCA ([2]; GEM-TCA 62.5 nM): sensitization effect was still significant

Antagomir-132: modified RNA oligo targeting miR-132 (accguggcuuucgauuguuacu), packaged with HKP into nanoparticles (antisense ACCGUGGCUUUCGAUUGUUACU; chemically modified, pattern not given here, packaged with HKP into nanoparticles)
miR-132 knockdown in the corneas [3]: peak miR-132 knockdown

mTOR-siRNA: 25mer siRNA duplex specific to mTOR mRNA; sense 5′-r(GGUCUGGUGCCUGGUCUGAUGAUGU)-3′ in b114 (sense CACUACAAAGAACUGGAGUUCCAGA; antisense UCUGGAACUCCAGUUCUUUGUAGUG; further chemistry not given here)
tumor cell killing by GEM-TCA after siRNA transfection [4]: significantly improved
maximum cell killing [2]: 60%
sensitization of Panc-1 cells to GEM-TCA ([2]; GEM-TCA 3.9 nM): significantly sensitize
sensitization of Panc-1 cells to GEM-TCA ([2]; GEM-TCA 15.6 nM): sensitization effect was disappeared
mTOR silencing potency [5]: potent
mTOR silencing potency [6]: potent

Nc1ccn([C@@H]2O[C@H](CO)[C@@H](O)C2(F)F)c(=O)n1 [Gemcitabine, 2′,2′-difluorodeoxycytidine]
pKa [7]: ~2.8
activity in combination with cisplatin ([8]; LX-1 and CALU-6 human lung xenografts): showed activity
activity in combination with cisplatin ([8]; NCI-H460 or NCI-H520 xenografts): minimal activity
activity with cisplatin in vitro [9]: dose-dependent synergistic activity
interaction with cisplatin [10]: synergistic
